The source of these data is PMC3813382 (The Journal of General Physiology, 2013).

A word on the EC50: it is the concentration that produces a half-maximal response. Higher therefore signals a need for much substance.

Structures are written as SMILES. Numbering of substitutions follows the chain as printed. “Also recorded” adds a separate entry of the source.

The target in one test is T1, F240C Slo2.1 channels (Homo sapiens, UniProt Q6UVM3, F240C).
T1 sequence (Q6UVM3 1-1135 F240C): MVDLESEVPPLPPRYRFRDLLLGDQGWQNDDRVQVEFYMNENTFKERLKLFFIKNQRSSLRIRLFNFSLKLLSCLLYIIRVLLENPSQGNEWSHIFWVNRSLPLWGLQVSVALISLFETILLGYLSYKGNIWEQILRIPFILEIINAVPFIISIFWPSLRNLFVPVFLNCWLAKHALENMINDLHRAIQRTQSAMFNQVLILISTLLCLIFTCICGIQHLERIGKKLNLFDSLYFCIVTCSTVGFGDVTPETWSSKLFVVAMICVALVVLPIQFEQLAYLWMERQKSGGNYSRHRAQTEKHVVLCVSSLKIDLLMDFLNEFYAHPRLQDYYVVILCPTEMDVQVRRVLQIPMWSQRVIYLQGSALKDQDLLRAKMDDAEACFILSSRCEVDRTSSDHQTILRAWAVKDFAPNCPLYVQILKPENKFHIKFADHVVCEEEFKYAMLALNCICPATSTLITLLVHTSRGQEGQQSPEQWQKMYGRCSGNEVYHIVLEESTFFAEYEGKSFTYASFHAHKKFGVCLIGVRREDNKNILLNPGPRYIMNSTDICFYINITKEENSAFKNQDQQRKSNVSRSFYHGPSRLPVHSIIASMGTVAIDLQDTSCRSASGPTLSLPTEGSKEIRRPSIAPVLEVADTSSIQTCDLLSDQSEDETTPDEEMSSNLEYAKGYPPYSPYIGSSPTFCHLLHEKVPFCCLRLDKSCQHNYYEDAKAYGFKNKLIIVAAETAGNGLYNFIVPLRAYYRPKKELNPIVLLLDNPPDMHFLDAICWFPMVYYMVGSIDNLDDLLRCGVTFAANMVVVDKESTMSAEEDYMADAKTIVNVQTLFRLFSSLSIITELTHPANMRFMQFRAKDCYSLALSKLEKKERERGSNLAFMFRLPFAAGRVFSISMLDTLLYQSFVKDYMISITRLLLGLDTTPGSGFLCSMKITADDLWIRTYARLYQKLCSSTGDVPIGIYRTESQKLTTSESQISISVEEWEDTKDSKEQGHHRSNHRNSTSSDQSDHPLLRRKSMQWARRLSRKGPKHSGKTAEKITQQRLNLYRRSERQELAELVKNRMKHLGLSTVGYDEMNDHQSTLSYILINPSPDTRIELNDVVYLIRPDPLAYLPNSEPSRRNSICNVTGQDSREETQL
Kind of test: Activation of ISlo2.1 by NFA, two-electrode voltage clamp in oocytes. The class given is cell-based. For orientation: Two-electrode voltage clamp is typically applied to oocytes expressing channels or transporters.

Test [1] has as its system endogenous currents present in uninjected oocytes. As to the kind of experiment: Effect of NFA on uninjected oocytes. The format is cell-based, Xenopus laevis.
The next test concerns the target T2, F258A Slo2.1 channels (Homo sapiens, UniProt Q6UVM3, F258A).
T2 sequence (Q6UVM3 1-1135 F258A): T1 sequence (Q6UVM3 1-1135 F240C) with C240F, F258A
As to the kind of experiment: Activation of ISlo2.1 by NFA, two-electrode voltage clamp in oocytes. The class given is cell-based.

In the case of `O=C(O)c1cccnc1Nc1cccc(C(F)(F)F)c1` [NFA, niflumic acid], the “activation of F240C currents by NFA” value is given as “not further activated by NFA” on F240C Slo2.1 channels (KCM211 solution ([K^+]e 2 mM)) and “further activated by 1 mM NFA” on F240C Slo2.1 channels ([K^+]e elevated to 104 mM, 1 mM NFA). Further, the “effect on endogenous currents in uninjected oocytes” value in test [1] (1 mM NFA, I-Vt relationships) was “reduced”; in test [1] (6 mM NFA, I-Vt relationships), “increased; also recorded: activated a relatively small endogenous current”; in test [1] (NFA at concentrations up to 1 mM), “slightly reduced”. The molecule also displayed an EC50 on F258A Slo2.1 channels of 400 ± 50 µM. Further, the “Hill coefficient nH of NFA activation” value at F258A Slo2.1 channels (F258A) was determined as 1.2 ± 0.08.
